Data: PubChem BioAssay (NCI)
Values joined by “and” are separate entries in the source; they are usually repeats but may differ in a detail not shown here. Identical values can stand only once.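 Interpolation was linear, between the two tested concentrations surrounding the appropriate level; five concentrations were tested over 48 hours in 96-well plates. GI50 marks 50% less growth. TGI denotes the concentration required for complete inhibition of growth.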

What was measured:
Test in all cases: inhibition of tumour cell growth, NCI panel, 48 h
ACHN renal = tested on: ACHN renal
CCRF-CEM leukemia = tested on: CCRF-CEM leukemia
HT29 colon = tested on: HT29 colon
OVCAR-4 ovarian = tested on: OVCAR-4 ovarian
OVCAR-5 ovarian = tested on: OVCAR-5 ovarian
OVCAR-8 ovarian = tested on: OVCAR-8 ovarian
SF-295 CNS = tested on: SF-295 CNS
SNB-75 CNS = tested on: SNB-75 CNS
U251 CNS = tested on: U251 CNS
UACC-257 melanoma = tested on: UACC-257 melanoma

SMILES | GI50 (ACHN renal) [µM] | TGI (ACHN renal) [µM] | GI50 (CCRF-CEM leukemia) | TGI (CCRF-CEM leukemia) [µM] | GI50 (HT29 colon) [µM] | TGI (HT29 colon) [µM] | GI50 (OVCAR-4 ovarian) [µM] | TGI (OVCAR-4 ovarian) [µM] | GI50 (OVCAR-5 ovarian) [µM] | TGI (OVCAR-5 ovarian) [µM] | GI50 (OVCAR-8 ovarian) | TGI (OVCAR-8 ovarian) [µM] | GI50 (SF-295 CNS) [µM] | TGI (SF-295 CNS) [µM] | GI50 (SNB-75 CNS) | TGI (SNB-75 CNS) [µM] | GI50 (U251 CNS) | TGI (U251 CNS) [µM] | GI50 (UACC-257 melanoma) [µM] | TGI (UACC-257 melanoma) [µM]
COc1cc(C(=O)/C=C/c2sc(Cl)nc2Cl)cc(OC)c1OC | 1.74 | 3.12 | 1.91 µM | 4.95 | 2.21 | 5.53 | 1.77 | 3.19 | 1.72 | 3.27 | 1.93 µM | 3.96 | 2.09 | 4.71 | 1.66 µM | 3.8 | 1.88 µM | 3.69 | 2.01 | 4.23
Cc1nc2c(nc1C)C(=O)c1ccccc1C2=O | – | 35.4 | – | 46.9 | – | 11.7 | – | 14.1 | – | 9.62 | – | 42.9 | – | 4.38 | – | 6.15 | – | 34.6 | – | 4.3
O=C(NCCNc1nccc(-c2c(-c3cccc(O)c3)nc3sccn23)n1)c1ccccc1O | 3.35 | > 53.4 | 1.21 µM | 19.4 | 3.61 | 20.7 | 6.67 | 53.6 | 13.3 | 65.3 | 3.14 µM | 25.4 | 4.18 | 26.6 | 2.29 µM | 19.6 | 4.9 µM | > 47.6 | 0.473 | 11.2
O=c1n(CC2CO2)c(=O)n(CC2CO2)n1CC1CO1 (stereo unspecified) | 2.69 | > 100 | 3.27 µM | > 80.2 | 19.3 | > 100 | 19.2 | > 85 | 63.1 | > 100 | 27.2 µM | > 100 | 3.65 | > 100 | 15.8 µM | > 100 | 10.9 µM | > 100 | 13 | 95.6
NC1CCC(Nc2nc(NCc3ccc(-c4ccco4)nc3)c3ncn(C4CCCC4)c3n2)CC1 (stereo unspecified) | 0.242 | – | 0.0362 µM | 1.88 | 0.00801 | – | 0.0307 | – | 0.0324 | 14.1 | 0.0431 µM | – | 0.0751 | – | 0.0101 µM | 0.0299 | 0.0344 µM | 12.6 | 0.0277 | 0.088
C=CCc1cc(OC)c2c(c1)C(O)CC(c1ccc(OC)c(OC)c1)O2 (stereo unspecified) | – | > 100 | – | > 100 | – | > 100 | – | > 100 | – | > 100 | – | > 100 | – | > 100 | – | > 100 | – | > 100 | – | > 100
C=C(CNCCO)[C@@H]1CC[C@]2(CO)CC[C@]3(C)[C@H](CC[C@@H]4[C@@]5(C)CCC(N)C(C)(C)[C@@H]5CC[C@]43C)[C@@H]12 (stereo partly specified) | 12.2 | 25 | 2.04 µM | 5.93 | 1.86 | 3.89 | 3.42 | 13.6 | 5.08 | 18.1 | 1.82 µM | 3.74 | 1.73 | 3.52 | 1.4 µM | 3.93 | 1.55 µM | 2.89 | 1.8 | 3.23
Cn1ccnc1C(=O)/C=C/c1ccc(CC(=O)Nc2ccc(Br)cc2)cc1 | 4.4 | > 16.7 | 3.04 µM | > 16.7 | 4.05 | 9.96 | 4.52 | > 16.7 | 2.74 | 7.38 | 5.39 µM | > 16.7 | 3.22 | 8.89 | 3.05 µM | > 16.7 | 1.97 µM | 4.51 | 15.6 | > 16.7
Cc1cc(=O)[nH]c2cc3oc4ccccc4c3cc12 | – | > 100 | – | > 75.9 | – | > 100 | – | > 100 | – | > 100 | – | > 100 | – | > 100 | – | > 100 | – | > 86.6 | – | > 100
NC(CCc1nc(-c2ccc(Cl)cc2)cs1)C(=O)O (stereo unspecified) | – | > 100 | – | > 100 | – | > 100 | – | > 100 | – | > 100 | – | > 100 | – | > 100 | – | > 100 | – | > 100 | – | > 100
O=C1c2cccnc2-c2nc(-c3ccccc3[N+](=O)[O-])cc3c2c1nc1ccccc13 | 9.03 | > 92.2 | > 100 µM | > 100 | 17.2 | 33.2 | 6.63 | > 70.4 | 6.99 | 33.4 | 13.1 µM | 44.2 | 25.9 | > 85.9 | 17.3 µM | 52 | 4 µM | 19.6 | 2.01 | 13.3
CSc1ccc(/C=C2\CN(C)C/C(=C\c3ccc(SC)cc3)C2=O)cc1 | – | > 100 | – | > 100 | – | 67 | – | > 100 | – | > 100 | – | 39.6 | – | > 100 | – | 38.2 | – | 33.1 | – | > 100
O=C(CSC(=S)N1CCCCC1)Nc1nc2c(s1)CCCC2 | – | > 100 | – | > 100 | – | > 100 | – | > 100 | – | > 100 | – | > 100 | – | 79.3 | – | > 100 | – | > 100 | – | 57.7
O=C(O)C(Cc1ccccc1)N1C(=O)N/C(=C\c2ccc(F)cc2)C1=O (stereo unspecified) | – | > 100 | – | > 100 | – | > 100 | – | > 100 | – | > 100 | – | > 100 | – | > 100 | – | > 100 | – | > 100 | – | > 100
O=[N+]([O-])c1cnc(Sc2ccncn2)s1 | 1.81 | 3.24 | 1.51 µM | 3.53 | 2.65 | 6.37 | 1.76 | 3.27 | 14 | 28.3 | 3.94 µM | 13.1 | 18 | 41 | 3.84 µM | 18.8 | 3.49 µM | 11.5 | 2.94 | 7.5
CN(C)CCCNC1=C(Cl)C(=O)c2ccccc2C1=O | 4.96 | 9.51 | 3.9 µM | 14.4 | 2.5 | 5.25 | 1.62 | 2.98 | 4.27 | 9.63 | 2.08 µM | 4.39 | 7.23 | 21.4 | 1.36 µM | 2.67 | 1.83 µM | 3.27 | 1.82 | 3.25
COc1ccc(NC(=O)c2cc(OC)cc(OC)c2)cc1 | – | > 100 | – | > 100 | – | > 100 | – | > 100 | – | > 100 | – | > 100 | – | > 64.5 | – | > 83.6 | – | > 61.3 | – | > 100
O=C(/C=C/c1ccccc1Cl)c1ccc(Cl)c(Cl)c1 | – | 28.6 | – | 81.8 | – | 36 | – | 25.5 | – | 32.8 | – | 33 | – | 31.3 | – | 27.3 | – | 31.1 | – | 40.2
CN(C)c1ccc(-c2cc(-c3ccc(Nc4nc(Nc5ccc(Cl)cc5)nc(Nc5ccc(Cl)cc5)n4)cc3)no2)cc1 | 7.9 | > 100 | 2.34 µM | 6.47 | 5.08 | 66.5 | 7.19 | > 100 | 17.3 | 50.2 | 5.91 µM | 39 | 6.36 | 43.8 | 5.12 µM | 28.1 | 6.27 µM | 61.8 | 9.28 | 68.3
COc1cc2cnc3c4cc(OC(C)C)c(OC)cc4ccc3c2cc1OC | – | > 100 | – | > 100 | – | > 100 | – | > 100 | – | > 100 | – | > 100 | – | > 100 | – | > 100 | – | > 100 | – | > 100
COC(=O)[C@@H](C)C[C@H](Cc1ccc(F)cc1)NC(=O)c1csc([C@@H](C[C@H](C(C)C)N(C)C(=O)[C@@H](NC(=O)[C@H]2CCCCN2C)C(C)C)OC(C)=O)n1 | 0.134 | > 16.7 | 0.000973 µM and 0.00639 µM | > 16.7 | – | > 16.7 | – | > 16.7 | – | > 16.7 | 0.00256 µM and 0.0116 µM | > 16.7 | – | > 16.7 | 0.000986 µM and 0.00522 µM | > 16.7 | 0.00151 µM and 0.00914 µM | > 16.7 | > 16.7 | > 16.7
CCOc1ccccc1-n1c(CN2CCN(C(=O)COc3ccc(CNCCCCCCN4C5CCCC4CC(OC(=O)Nc4cc(C)ccc4OC)C5)cc3)CC2)nc2ccccc2c1=O (stereo unspecified) | 2.4 | 5.9 | 0.16 µM | 1.21 | 0.798 | 2.05 | 1.75 | 3.34 | 1.9 | 3.45 | 1.83 µM | 3.75 | 1.66 | 3.27 | 1.4 µM | 2.72 | 0.61 µM | 1.2 | 1.88 | 3.45
COc1ccc(/C=C\c2cc(OC)c3c(c2)OCO3)c(O)c1O | – | 32.7 | – | 14.3 | – | 47.2 | – | 20.6 | – | 55 | – | 32.5 | – | 36.8 | – | 15.5 | – | 19.3 | – | 53.4
